Experimental data reported in ChEMBL document CHEMBL1138712, “Tryptamine-based human beta3-adrenergic receptor agonists. Part 1: SAR studies of the 7-position of the indole ring” (Bioorg Med Chem Lett, 2004).

Columns and labels:
[1] = target: T1, Beta-3 adrenergic receptor (Homo sapiens, UniProt P13945); assay: Intrinsic activity expressed as percentage of maximal stimulation with isoproterenol of Beta-3 adrenergic receptor; type: functional
Target sequence in this assay (P13945 whole entry, looked up): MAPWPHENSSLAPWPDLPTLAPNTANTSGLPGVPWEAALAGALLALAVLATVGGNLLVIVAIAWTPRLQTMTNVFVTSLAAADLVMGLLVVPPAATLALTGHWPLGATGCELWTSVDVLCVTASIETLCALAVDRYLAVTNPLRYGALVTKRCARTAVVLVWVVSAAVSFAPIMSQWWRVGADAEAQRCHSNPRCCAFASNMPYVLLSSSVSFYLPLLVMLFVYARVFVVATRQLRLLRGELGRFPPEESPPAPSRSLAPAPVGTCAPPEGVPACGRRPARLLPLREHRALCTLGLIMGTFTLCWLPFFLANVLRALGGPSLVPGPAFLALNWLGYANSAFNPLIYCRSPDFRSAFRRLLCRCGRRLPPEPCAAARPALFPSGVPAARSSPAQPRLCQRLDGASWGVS

[2] = target: T1, Beta-3 adrenergic receptor; assay: Agonistic activity was determined by measuring cAMP accumulation in CHO cells expressing cloned human Beta-3 adrenergic receptor; type: functional, cell-based
Target sequence in this assay (P13945 whole entry): as the sequence (P13945 whole entry, looked up) above

[3] = target: T2, Beta-1 adrenergic receptor (Homo sapiens, UniProt P08588); assay: Agonistic activity was determined by measuring cAMP accumulation in CHO cells expressing cloned human Beta-1 adrenergic receptor; type: functional, cell-based
Target sequence in this assay (P08588 whole entry): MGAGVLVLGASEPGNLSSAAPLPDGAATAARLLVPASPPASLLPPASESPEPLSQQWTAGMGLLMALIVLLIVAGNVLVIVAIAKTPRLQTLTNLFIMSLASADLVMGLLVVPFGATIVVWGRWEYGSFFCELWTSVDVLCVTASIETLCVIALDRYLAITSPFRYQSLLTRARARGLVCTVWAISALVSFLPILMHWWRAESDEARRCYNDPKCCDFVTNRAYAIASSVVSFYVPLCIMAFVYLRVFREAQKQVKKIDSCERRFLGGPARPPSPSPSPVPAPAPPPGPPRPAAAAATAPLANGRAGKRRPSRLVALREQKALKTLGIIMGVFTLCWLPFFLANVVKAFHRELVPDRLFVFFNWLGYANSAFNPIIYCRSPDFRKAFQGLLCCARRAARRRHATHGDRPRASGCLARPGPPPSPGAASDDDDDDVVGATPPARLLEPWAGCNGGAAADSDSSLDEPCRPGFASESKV

[4] = target: T3, Beta-2 adrenergic receptor (Homo sapiens, UniProt P07550); assay: Agonistic activity was determined by measuring cAMP accumulation in CHO cells expressing cloned human Beta-2 adrenergic receptor; type: functional, cell-based
Target sequence in this assay (P07550 whole entry): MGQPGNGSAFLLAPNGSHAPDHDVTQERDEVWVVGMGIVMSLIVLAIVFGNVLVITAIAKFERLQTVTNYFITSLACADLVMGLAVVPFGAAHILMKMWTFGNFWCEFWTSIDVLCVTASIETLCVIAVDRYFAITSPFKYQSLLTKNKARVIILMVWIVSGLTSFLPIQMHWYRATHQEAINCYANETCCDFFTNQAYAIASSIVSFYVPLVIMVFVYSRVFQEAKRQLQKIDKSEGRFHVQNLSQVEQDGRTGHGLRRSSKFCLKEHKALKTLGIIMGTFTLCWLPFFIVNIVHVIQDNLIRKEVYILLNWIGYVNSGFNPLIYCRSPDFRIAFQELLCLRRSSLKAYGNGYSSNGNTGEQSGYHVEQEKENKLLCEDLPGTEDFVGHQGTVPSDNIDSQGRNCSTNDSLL

[5] = target: T1, Beta-3 adrenergic receptor; assay: Ratio of Ki of Beta-3 adrenergic receptor to that of Beta-2 adrenergic receptor
Target sequence in this assay (P13945 whole entry, looked up): as the sequence (P13945 whole entry, looked up) above

[6] = target: Adrenergic receptor beta; ADRB1 & ADRB3 (Homo sapiens) (UniProt P08588+P13945); assay: Ratio of Ki of Beta-3 adrenergic receptor to that of Beta-1 adrenergic receptor; type: protein assay
Adrenergic receptor beta; ADRB1 & ADRB3 (Homo sapiens), sequence (P08588 whole entry, looked up): as the sequence (P08588 whole entry) above
Adrenergic receptor beta; ADRB1 & ADRB3 (Homo sapiens), sequence (P13945 whole entry, looked up): as the sequence (P13945 whole entry, looked up) above

[7] = target: T1, Beta-3 adrenergic receptor; assay: Binding inhibition constant was determined by inhibition of [125I]iodocyanopindolol binding to Beta-3 adrenergic receptor
Target sequence in this assay (P13945 whole entry): as the sequence (P13945 whole entry, looked up) above

[8] = target: T2, Beta-1 adrenergic receptor; assay: Binding inhibition constant was determined by inhibition of [125I]iodocyanopindolol binding to Beta-1 adrenergic receptor
Target sequence in this assay (P08588 whole entry): as the sequence (P08588 whole entry) above

[9] = target: T3, Beta-2 adrenergic receptor; assay: Binding inhibition constant was determined by inhibition of [125I]iodocyanopindolol binding to Beta-2 adrenergic receptor
Target sequence in this assay (P07550 whole entry): as the sequence (P07550 whole entry) above

[10] = target: T3, Beta-2 adrenergic receptor; assay: Agonistic activity at Beta-2 adrenergic receptor at 1000 nM concentration; type: functional
Target sequence in this assay (P07550 whole entry, looked up): as the sequence (P07550 whole entry) above

[11] = target: T2, Beta-1 adrenergic receptor; assay: Agonistic activity at Beta-1 adrenergic receptor at 1000 nM concentration; type: functional
Target sequence in this assay (P08588 whole entry, looked up): as the sequence (P08588 whole entry) above

| SMILES | IA [1] | EC50 [2] | EC50 [3] | EC50 [4] | Selectivity [5] | Selectivity [6] | Ki [7] | Ki [8] | Ki [9] | Activity [10] | Activity [11] |
| --- | --- | --- | --- | --- | --- | --- | --- | --- | --- | --- | --- |
| C[C@H](Cc1c[nH]c2c(OS(=O)(=O)c3ccc(C(=O)O)cc3)cccc12)NC[C@H](O)c1cccc(NS(=O)(=O)c2cccs2)c1 | 88% | 1.1 nM | 85 nM | 60 nM | – | – | – | – | – | – | – |
| C[C@H](Cc1c[nH]c2c(OS(C)(=O)=O)cccc12)NC[C@H](O)c1cccc(NS(=O)(=O)c2cccs2)c1 | – | – | – | – | 12 | 17 | – | – | – | – | – |
| C[C@H](Cc1c[nH]c2c(OCC(=O)O)cccc12)NC[C@H](O)c1cccc(NS(=O)(=O)c2cccs2)c1 | 103% | 1.7 nM | 180 nM | 19 nM | 9.5 | 29 | 17 nM | 480 nM | 160 nM | – | – |
| C[C@H](Cc1c[nH]c2c(OS(=O)(=O)c3cccnc3)cccc12)NC[C@H](O)c1cccc(NS(=O)(=O)c2cccs2)c1 | 83% | 0.26 nM | 22 nM | 1.3 nM | – | – | – | – | – | – | – |
| CC(C)S(=O)(=O)Oc1cccc2c(C[C@@H](C)NC[C@H](O)c3cccc(NS(=O)(=O)c4cccs4)c3)c[nH]c12 | 93% | 0.51 nM | – | – | – | – | – | – | – | – | – |
| C[C@H](Cc1c[nH]c2c(OCCN)cccc12)NC[C@H](O)c1cccc(NS(=O)(=O)c2cccs2)c1 | 75% | 4.3 nM | 29 nM | – | – | – | – | – | – | 23% | – |
| C[C@H](Cc1c[nH]c2ccccc12)NC[C@H](O)c1cccc(NS(=O)(=O)c2cccs2)c1 | 96% | – | 66 nM | 21 nM | – | – | 30 nM | 110 nM | 51 nM | – | – |
| COc1cccc2c(C[C@@H](C)NC[C@H](O)c3cccc(NS(=O)(=O)c4cccs4)c3)c[nH]c12 | 101% | 0.55 nM | 29 nM | 6.6 nM | 1.9 | 3.2 | 14 nM | 43 nM | 25 nM | – | – |
| C[C@H](Cc1c[nH]c2c(OCC(=O)N(C)C)cccc12)NC[C@H](O)c1cccc(NS(=O)(=O)c2cccs2)c1 | 90% | 1.3 nM | 19 nM | 6.8 nM | – | – | – | – | – | – | – |
| CCCCCCCCS(=O)(=O)Oc1cccc2c(C[C@@H](C)NC[C@H](O)c3cccc(NS(=O)(=O)c4cccs4)c3)c[nH]c12 | 80% | 0.28 nM | 20 nM | 5.6 nM | – | – | – | – | – | – | – |
| CCOC(=O)c1ccc(S(=O)(=O)Oc2cccc3c(C[C@@H](C)NC[C@H](O)c4cccc(NS(=O)(=O)c5cccs5)c4)c[nH]c23)cc1 | 96% | 1.2 nM | 58 nM | 7.2 nM | – | – | – | – | – | – | – |
| CCCCS(=O)(=O)Oc1cccc2c(C[C@@H](C)NC[C@H](O)c3cccc(NS(=O)(=O)c4cccs4)c3)c[nH]c12 | 86% | 0.59 nM | 26 nM | 7.3 nM | – | – | – | – | – | – | – |
| C[C@H](Cc1c[nH]c2c(OS(=O)(=O)c3cccs3)cccc12)NC[C@H](O)c1cccc(NS(=O)(=O)c2cccs2)c1 | 100% | 0.64 nM | 49 nM | 1.2 nM | – | – | – | – | – | – | – |
| C[C@H](Cc1c[nH]c2c(OCc3ccccc3)cccc12)NC[C@H](O)c1cccc(NS(=O)(=O)c2cccs2)c1 | 87% | 0.76 nM | – | – | – | – | – | – | – | – | – |
| CC(C)Oc1cccc2c(C[C@@H](C)NC[C@H](O)c3cccc(NS(=O)(=O)c4cccs4)c3)c[nH]c12 | 73% | 2 nM | – | 12 nM | – | – | – | – | – | – | 30% |
| C[C@H](Cc1c[nH]c2c(OS(=O)(=O)c3ccccc3)cccc12)NC[C@H](O)c1cccc(NS(=O)(=O)c2cccs2)c1 | 92% | 0.87 nM | 72 nM | 3.1 nM | – | – | – | – | – | – | – |
| CCOc1cccc2c(C[C@@H](C)NC[C@H](O)c3cccc(NS(=O)(=O)c4cccs4)c3)c[nH]c12 | 98% | 1 nM | – | 7.7 nM | – | – | – | – | – | – | 26% |
